The subject of test [1] is CCI-induced TBI mice. The test can be described thus: Controlled cortical impact (CCI) mouse model of TBI: beam walking test. In kind it is in vivo. Particulars: for beam walking test average transit time / beam walking test immobility time: 1 week after CCI. How it is done:
(§1) In vivo model of TBI: Mice were anesthetized with 2.5% tribromoethanol (Avertin: 250 mg/kg; Sigma, St. Louis, MO, USA) and placed in a stereotaxic frame (Kopf Instruments, Tujunga, CA, USA). A 4 mm craniotomy was performed using sterile procedures; the craniotomy point was selected midway between the lambda and bregma sutures and laterally midway between the central suture and the temporalis muscle. The skull fragment was then carefully removed without disruption of the underlying dura. Prior to injury induction, the tip of the impactor was angled and kept perpendicular to the exposed cortical surface. The mouse CCI instrument consisted of an electromagnetic impactor, Impact One (Leica Biosystems Inc., Buffalo Grove, IL, USA) that allows independent alteration of injury severity by controlling contact velocity and the level of cortical deformation. In these experiments, the contact velocity was set at 5.0 m/sec, the dwell time was set at 0.2 s and the deformation depth was set at 2 mm to produce a moderate TBI. The injury site was allowed to dry prior to suturing the wound. During surgery and recovery, the body temperature of the animals was maintained at 36-37° C. by using a heating pad. […] Mice were randomized following CCI to treatment with either of two doses of TFBP (16.25 mg/kg and 32.5 mg/kg, i.p.) or saline, and were dosed at 1 and 24 hr after the injury.
(§2) Behavioral assessment for motor functions and coordination: Behavioral tests were performed 1 week and 2 weeks after injury, to assess changes in motor functions and coordination. All tests were performed during the animals' light phase; cages were transported to testing rooms at least 30 min prior to testing.
Beam Walking Test (BWT): A BWT was used to assess CCI-induced deficits in fine motor coordination. Mice have a preference for a darkened enclosed environment, as compared to an open illuminated one. Each animal was placed in darkened goal box for a 2 min habituation and then the trial began from the other (light) end of the beam. The beam was constructed with the following dimensions: 1.2 cm (width)×91 cm (length). The time taken for each animal to traverse the beam to reach the dark goal box and the immobility time spent between the moment when they were initially placed in the beam and when they started walking were documented. Five trials were recorded for each animal before CCI and at 1 and 2 weeks after CCI. The mean times to traverse the beam and the immobility times were calculated, and a plot was generated to evaluate treatment effects; these times were then used for statistical analysis.
In Vivo Model of TBI: TBI studies were conducted in 8-week-old male C57/BL6 mice (25-30 g; n=20), Jackson Laboratory, Bar Harbor, Maine USA. Mice were randomly assigned to four groups prior surgery, CMC+Sham, CMC+TBI, compound 30 (Low dose (LD), 14.78 mg/kg, prepared in 1% CMC in PBS)+TBI, compound 30 (High dose (HD), 29.57 mg/kg)+TBI, and evaluated the effects of compound 30 on TBI. Mice were assessed for gait function and motor coordination, balance function. Animals were subsequently evaluated for cellular changes using histological and immunohistochemistry staining.
Mice were anesthetized with 2.5% tribromoethanol (Avertin: 250 mg/kg; Sigma, St. Louis, MO, USA)) and placed in a mouse stereotaxic frame (Kopf Instruments, Tujunga, CA, USA) and fixed by ear bars and incisor bar. Under sterile procedures, the skin was retracted and a 5-mm square craniectomy was executed over right motor cortex at the posterior corner between the bregma and sagittal sutures. The skull was carefully removed by a drill to avoid damaging the dura underneath. The process of craniectomy proceeded without having the temporalis muscle impaired. The CCI device, Impact One (Leica Biosystems Inc., Buffalo Grove, IL, USA), consists of an electromagnetic impactor that allows alteration of injury severity by controlling contact velocity and the depth of cortical deformation independently. […]

For a further test, the target named is SALL4 (Homo sapiens (Human), UniProt Q9UJQ4). Kind of test: SALL4 expression in Tera-1 cells (Western blot). The class given is cell-based. The note with it: Tera-1 cells, 0.1 μM and 1 μM. The procedure:
(§3) For Western blot analysis, total proteins were extracted using RIPA buffer (ThermoFisher Scientific, Waltham, MA) containing Halt Protease Inhibitor Cocktail (ThermoFisher Scientific). […] After incubation at 4° C. overnight, the following HRP conjugated secondary antibodies were used: (i) goat anti-rabbit IgG (ThermoFisher Scientific) for ikaros and aiolos, and (ii) goat anti-mouse IgG (ThermoFisher Scientific) for SALL4 and GAPDH. […] Antigen-antibody complexes were detected using enhanced chemiluminescence (Thermo, iBright CL1500).
Specifically, MM1.S cells were obtained from ATCC (Manassas, VA, USA), grown in RPMI media supplemented with 10% FBS, penicillin 100 U/mL, and streptomycin […], and maintained at 37° C. and 5% CO2.
as §3, with “MA, USA)” for “MA)”, “Scientific). Thereafter, the proteins were separated by gel electrophoresis and then transferred to polyvinylidene difluoride (PVDF) membranes (ThermoFisher Scientific), as described previously.” for “Scientific).”, “HRP-conjugated” for “HRP conjugated”, “Ikaros” for “ikaros”, “Aiolos,” for “aiolos,”, “(ThermoFisher Scientific,” for “(Thermo,”

Test [2] concerns CCI-induced TBI mice. The test can be described thus: CCI mouse model of TBI: DigiGait gait analysis. Particulars: high dose 32.5 mg/kg; 1 week after CCI. In kind it is in vivo. The procedure:
as §1, §2
Gait analysis: For the gait analysis, mice were tested on a fixed-speed treadmill apparatus (DigiGait; Mouse Specifics). Mice were habituated to the apparatus for 1 min, and then given a 1-min run at 5 cm/s. Following a 1-min rest, the treadmill speed was increased to 15 cm/s. Video was collected at high speed from a ventrally placed camera, and 3-5 s of representative gait video was selected by an experienced but blinded user for automated analysis.
In Vivo Model of TBI: TBI studies were conducted in 8-week-old male C57/BL6 mice (25-30 g; n=20), Jackson Laboratory, Bar Harbor, Maine USA. Mice were randomly assigned to four groups prior surgery, CMC+Sham, CMC+TBI, compound 30 (Low dose (LD), 14.78 mg/kg, prepared in 1% CMC in PBS)+TBI, compound 30 (High dose (HD), 29.57 mg/kg)+TBI, and evaluated the effects of compound 30 on TBI. Mice were assessed for gait function and motor coordination, balance function. Animals were subsequently evaluated for cellular changes using histological and immunohistochemistry staining. […]

Each structure is given as a SMILES string.

Take `Nc1ccc(F)c2c1C(=S)N(C1CCC(=S)NC1=O)C2=O` (centres unmarked) [Compound 30, 4-amino-7-fluoro-2-(2-oxo-6-thioxopiperidin-3-yl)-3-thioxoisoindolin-1-one]: in the test on CCI-induced TBI mice [1] (high dose 29.57 mg/kg), the “beam walking test average time” value was “reached significant different”. Moreover, the “beam walking test, average time and contralateral foot falls (trend)” value in the test on CCI-induced TBI mice [1] (treated groups 14.78, 29.57 mg/kg) is “clear reducing trends”.

Consider `O=C1c2c(F)c(F)c(F)c(F)c2C(=O)N1C1CC2CCC1C2` (stereo not drawn) [Compound 16, 2-Endo-(bicyclo[2.2.1]heptan-2-yl)-4,5,6,7-tetrafluoroisoindoline-1,3-dione], for which the SALL4 expression levels entry at SALL4 is recorded as “did not statistically affect”; on SALL4 (listed as TFNBP), “did not lower the expression of neosubstrate SALL4”.

For the molecule `CC1(C)[C@@H]2CC[C@@]1(C)[C@@H](N1C(=O)c3c(F)c(F)c(F)c(F)c3C1=O)C2` [Compound 14, 4,5,6,7-Tetrafluoro-2-((1R,2S,4R)-1,7,7-trimethylbicyclo[2.2.1]heptan-2-yl) isoindoline-1,3-dione], the results for the “beam walking test average transit time” value in the test with CCI-induced TBI mice [1] (higher dose 32.5 mg/kg i.p.) and in the test on CCI-induced TBI mice [1] (lower dose 16.25 mg/kg i.p.) were “prevented the CCI-induced behavioral impairment” and “but not the average transit time deficit”, respectively. In addition, the “beam walking test immobility time” value with CCI-induced TBI mice [1] (higher dose 32.5 mg/kg i.p.) was “prevented the CCI-induced behavioral impairment”; with CCI-induced TBI mice [1] (lower dose 16.25 mg/kg i.p.) it was “effective in mitigating the immobility measure”. Further, the results for the SALL4 expression levels result on SALL4 and on SALL4 (listed as TFBP) were “did not statistically affect” and “did not lower the expression of neosubstrate SALL4”, respectively. Further, the gait brake time result with CCI-induced TBI mice [2] was “fully mitigates this rise”.

For the origin of these results see patent US20260055061A1, “HALOPHTHALIMIDE COMPOUNDS AND METHODS OF USE AGAINST TBI, INFLAMMATORY DISORDER, AUTOIMMUNE DISORDER, NEURODEGENERATIVE DISEASE OR VIRAL INFECTION” (The United States of America, as represented by the …, priority 2022, published 2026).
